Results as given in patent EP0586592B1, “INSULIN AND AMYLIN CONTAINING COMPOSITION FOR THE TREATMENT OF INSULIN DEFICIENT MAMMALS” (AMYLIN PHARMACEUTICALS, INC., priority 1991, dated 2000).

System: rat soleus muscle
Format: cell-based
Conditions: 4 h
Method: Male Harlan Sprague Dawley rats of approximately 200 g mass were used in order to maintain soleus muscle mass less than 40 mg. The animals were fasted for 4 hours prior to sacrifice by decapitation. The skin was stripped from the lower limb which was then pinned out on cork board. The tendo achilles was cut just above os […]. gastrocnemius reflected out from the posterior aspect of the tibia. M. soleus, a small 15-20 mm long, 0.5 mm thick flat muscle on the bone surface of m. gastrocnemius was then stripped clear and the perimysium cleaned off using fine scissors and forceps. M. soleus was then split into equal parts using a blade passed antero-posteriorly through the belly of the muscle to obtain a total of 4 muscle strips from each animal. […] Methods used to determine the nature and purity of rat and human amylin included quantitative amino acid analysis, gas phase amino acid sequencing, reverse phase HPLC and fast-atom-bombardment mass spectrometry. […] The concentration of human amylin present in the medium at the end of the incubation was determined by radioimmunoassay in surfactant-containing buffer. For both human and rat amylin, the actual mass added to the incubation medium was determined by quantitative amino-acid analysis. […] The remaining glycogen was redissolved in 1 mL water and 4 mL scintillation fluid and counted for ^14C. […]

EC50: 0.438 nM
Structure (SMILES): CC[C@H](C)[C@H](NC(=O)[C@H](C)NC(=O)CNC(=O)[C@H](Cc1ccccc1)NC(=O)[C@H](CC(N)=O)NC(=O)[C@H](CC(N)=O)NC(=O)[C@H](CO)NC(=O)[C@H](CO)NC(=O)[C@H](Cc1c[nH]cn1)NC(=O)[C@@H](NC(=O)[C@H](CC(C)C)NC(=O)[C@H](Cc1ccccc1)NC(=O)[C@H](CC(N)=O)NC(=O)[C@H](C)NC(=O)[C@H](CC(C)C)NC(=O)[C@H](CCCNC(=N)N)NC(=O)[C@H](CCC(N)=O)NC(=O)[C@@H](NC(=O)[C@H](C)NC(=O)[C@@H]1CSSC[C@H](NC(=O)[C@@H](N)CCCCN)C(=O)N[C@@H](CC(N)=O)C(=O)N[C@@H]([C@@H](C)O)C(=O)N[C@@H](C)C(=O)N[C@@H]([C@@H](C)O)C(=O)N1)[C@@H](C)O)C(C)C)C(=O)N[C@@H](CC(C)C)C(=O)N[C@@H](CO)C(=O)N[C@@H](CO)C(=O)N[C@H](C(=O)N[C@@H](CC(N)=O)C(=O)N[C@H](C(=O)NCC(=O)N[C@@H](CO)C(=O)N[C@@H](CC(N)=O)C(=O)N[C@H](C(=O)N[C@@H](Cc1ccc(O)cc1)C(N)=O)[C@@H](C)O)C(C)C)[C@@H](C)O [human amylin]
